Key:
Type in all cases: cell-based
PANC-1 = test: Cytotoxicity MTS, solid tumors, Pancreas PANC-1; details: 4-Parameter Curve Fit, NA = not active
CHSA = test: Cytotoxicity MTS, solid tumors, Chondrosarcoma CHSA; details: 4-Parameter Curve Fit, NA = not active
5637 = test: Cytotoxicity MTS, solid tumors, Bladder 5637; details: 4-Parameter Curve Fit, NA = not active
NCI-H187 = test: Cytotoxicity MTS, solid tumors, SCL NCI-H187; details: 4-Parameter Curve Fit, NA = not active
DU-145 = test: Cytotoxicity MTS, solid tumors, Prostate DU-145; details: 4-Parameter Curve Fit, NA = not active
FADU = test: Cytotoxicity MTS, solid tumors, Pharynx FADU; details: 4-Parameter Curve Fit, NA = not active
SW 694 = test: Cytotoxicity MTS, solid tumors, Fibrosarcoma SW 694; details: 4-Parameter Curve Fit, NA = not active
OSA-FH = test: Cytotoxicity MTS, solid tumors, Osteosarcoma OSA-FH; details: 4-Parameter Curve Fit, NA = not active
PC-3 = test: Cytotoxicity MTS, solid tumors, Prostate PC-3; details: 4-Parameter Curve Fit, NA = not active
A549 = test: Cytotoxicity MTS, solid tumors, NSCL A549; details: 4-Parameter Curve Fit, NA = not active
LNCAP = test: Cytotoxicity MTS, solid tumors, Prostate LNCAP; details: 4-Parameter Curve Fit, NA = not active
HT-29 = test: Cytotoxicity MTS, solid tumors, Colon HT-29; details: 4-Parameter Curve Fit, NA = not active
Mel-28 = test: Cytotoxicity MTS, solid tumors, Melanoma Mel-28; details: 4-Parameter Curve Fit, NA = not active
Y-79 = test: Cytotoxicity MTS, solid tumors, Retinoblastoma Y-79; details: 4-Parameter Curve Fit, NA = not active
MX-1 = test: Cytotoxicity MTS, solid tumors, Breast MX-1; details: 4-Parameter Curve Fit, NA = not active
786-O = test: Cytotoxicity MTS, solid tumors, Renal 786-O; details: 4-Parameter Curve Fit, NA = not active
SK-HEP-1 = test: Cytotoxicity MTS, solid tumors, Liver SK-HEP-1; details: 4-Parameter Curve Fit, NA = not active
Hs746t = test: Cytotoxicity MTS, solid tumors, Gastric Hs746t; details: 4-Parameter Curve Fit, NA = not active
Molt 3 = test: Cytotoxicity MTS, leukemias/lymphomas, Molt 3; details: 4-Parameter Curve Fit, NA = not active, read-out: Cytotoxicity IC50 ALL (Acute lymphobalstic) Molt 3
Hut 78 = test: Cytotoxicity MTS, leukemias/lymphomas, Hut 78; details: 4-Parameter Curve Fit, NA = not active, read-out: Cytotoxicity IC50 Lymphoma (Cutaneous T cell) Hut 78
MC116 = test: Cytotoxicity MTS, leukemias/lymphomas, MC116; details: 4-Parameter Curve Fit, NA = not active, read-out: Cytotoxicity IC50 Lymphoma (undifferentiated) MC116
RAMOS = test: Cytotoxicity MTS, leukemias/lymphomas, RAMOS; details: 4-Parameter Curve Fit, NA = not active, read-out: Cytotoxicity IC50 Lymphoma (Burkitts B cell) RAMOS
H9 = test: Cytotoxicity MTS, leukemias/lymphomas, H9; details: 4-Parameter Curve Fit, NA = not active, read-out: Cytotoxicity IC50 Lymphoma (T cell) H9
HL-60 = test: Cytotoxicity MTS, leukemias/lymphomas, HL-60; details: read-out: Cytotoxicity IC50 AML (acute promyelocytic leukemia) HL-60, 4-Parameter Curve Fit, NA = not active, read-out: Cytotoxicity IC50 ALL (Promyelocytic leukemia) HL-60

In the case of CCCCCCCCCCCCCCCC[C@@H](O)[C@H](C)N [drawing 113], the IC50 (PANC-1) is reported as 0.167 µM, the IC50 (CHSA) is reported as 0.018 µM and the IC50 5637 is reported as 0.0472 µM. The IC50 (NCI-H187) was 0.163 µM, the IC50 (DU-145) was 0.0739 µM and the IC50 (FADU) was 0.0103 µM. It also gave an IC50 (SW 694) of 6.49 µM, an IC50 (OSA-FH) of 0.183 µM and an IC50 (PC-3) of 0.086 µM. It also gave an IC50 (A549) of 0.0343 µM, an IC50 (LNCAP) of 0.0444 µM and an IC50 (HT-29) of 0.0643 µM. The IC50 (Mel-28) was 7.21 µM and the IC50 (Y-79) was 4.65 µM.
CCCCCCCCCCCCCCCCC[C@@H](O)[C@H](C)N [drawing 114] was tested, and the IC50 (PANC-1) was 0.722 µM, the IC50 (CHSA) was 1.58 µM and the IC50 5637 was 6.34 µM. For the same molecule, the IC50 (NCI-H187) was 7.17 µM, the IC50 (DU-145) was 9.86 µM and the IC50 (FADU) was 0.0812 µM. It also gave an IC50 (SW 694) of 10.4 µM, an IC50 (OSA-FH) of 8.6 µM and an IC50 (PC-3) of 0.049 µM. For the same molecule, the IC50 (A549) was 9.79 µM, the IC50 (LNCAP) was 7.69 µM and the IC50 (HT-29) was 9.07 µM.
Work on CCCCCCCCCCCCCC[C@@H](O)[C@H](C)N [drawing 115] yielded an IC50 (PANC-1) of 0.0864 µM, an IC50 (CHSA) of 9.65 µM and an IC50 5637 of 0.0365 µM. It also gave an IC50 (DU-145) of 0.201 µM, an IC50 (FADU) of 0.0784 µM and an IC50 (SW 694) of 10.1 µM. It also gave an IC50 (PC-3) of 0.379 µM, an IC50 (A549) of 10.1 µM and an IC50 (LNCAP) of 0.0715 µM. The IC50 (HT-29) was 0.264 µM and the IC50 (Mel-28) was 10.3 µM.
CCCCCCCCCCCCCCC[C@@H](O)[C@@H](N)CC [drawing 116] gave an IC50 (PANC-1) of 0.186 µM, an IC50 (CHSA) of 8.94 µM and an IC50 5637 of 7.8 µM. For the same molecule, the IC50 (NCI-H187) was 7.29 µM, the IC50 (DU-145) was 0.0755 µM and the IC50 (FADU) was 0.225 µM. It also gave an IC50 (SW 694) of 7.57 µM, an IC50 (OSA-FH) of 8.52 µM and an IC50 (PC-3) of 10.2 µM. The IC50 (A549) was 10.3 µM, the IC50 (LNCAP) was 6.35 µM and the IC50 (HT-29) was 9.11 µM. For the same molecule, the IC50 (Mel-28) was 9.4 µM and the IC50 (Y-79) was 9.51 µM.
With CCCCCCCCCCCCCC[C@@H](O)[C@H](C)N [drawing 117] the IC50 5637 was 3.26 µM, the IC50 (FADU) was 19.6 µM and the IC50 (A549) was 49 µM.
With CCCCCCCCCCCCCCCC(=O)[C@H](C)N [drawing 118] the IC50 (NCI-H187) was 3.55 µM, the IC50 (MX-1) was 2.84 µM and the IC50 (786-O) was 0.162 µM. The IC50 (Y-79) was 12.1 µM.
CCCCCCCCCCCCCCCCC(=O)[C@H](C)N [drawing 119] showed an IC50 5637 of 29.9 µM, an IC50 (OSA-FH) of 14.9 µM and an IC50 (MX-1) of 14.9 µM.
With CCCCCCCCCCCCCCCCCC(=O)[C@H](C)N [drawing 120] the IC50 (FADU) was 14.3 µM and the IC50 (A549) was 20.1 µM.
With CCCCCCCCCCCCCCCC(=O)[C@@H](N)CC [drawing 121] the IC50 5637 was 1.58 µM, the IC50 (FADU) was 2.99 µM and the IC50 (MX-1) was 1.72 µM. For the same molecule, the IC50 (786-O) was 59.8 µM.
In the case of CCCCCCCCCCCCCCC[C@@H](O)[C@@H](N)CF [drawing 122], the IC50 (CHSA) is reported as 4.62 µM, the IC50 5637 is reported as 1.45 µM and the IC50 (DU-145) is reported as 0.0495 µM. It also gave an IC50 (FADU) of 3.96 µM, an IC50 (SK-HEP-1) of 15.5 µM and an IC50 (Hs746t) of 16.2 µM. For the same molecule, the IC50 (PC-3) was 21.8 µM, the IC50 (MX-1) was 4.29 µM and the IC50 (786-O) was 3.3 µM. The IC50 (Mel-28) was 2.54 µM and the IC50 (Y-79) was 1.65 µM.
CCCCCCCCCCCCCCC(O)C(C)N (stereo not shown) [drawing 126] gave an IC50 (Molt 3) of 0.00983 µM, an IC50 (Hut 78) of 8.81 µM and an IC50 (MC116) of 9.58 µM.
CCCCCCCCCCCCCCCC(O)C(N)CC (stereo not shown) [drawing 127] was tested, and the IC50 (Molt 3) was 0.0376 µM and the IC50 (Hut 78) was 9.15 µM.
Molecule CCCCCCCCCCCCCCC(O)C(C)N (stereo not shown) [drawing 128] has an IC50 (Molt 3) of 26.1 µM.
In the case of CCCCCCCCCCCCCCCCCC(=O)[C@H](C)N [drawing 131], the IC50 (Molt 3) is reported as 14.3 µM, the IC50 (RAMOS) is reported as 1.65 µM and the IC50 (H9) is reported as 2.59 µM.
For CCCCCCCCCCCCCCC[C@@H](O)[C@@H](N)CF [drawing 133], the IC50 (HL-60) was 1.29 µM.

Reference: patent US20040048834A1, “Antitumoral compounds” (priority 2000, published 2004)
